Source: US20250074943A1, “DLL3 BINDING PEPTIDES AND USES THEREOF” (AMGEN INC., priority 2021, published 2025)
Bridge positions count the residues as written; N and C are the ends. Peptide text beside a SMILES is read from it.

Molecular target: T1, recombinant DLL3 ectodomain (rhDLL3-Fc) (Homo sapiens, UniProt Q9NYJ7)
T1 construct: The recombinant DLL3 ectodomain (rhDLL3-Fc) was biotinylated; Fc
T1 sequence (Q9NYJ7 27-492 limits assumed): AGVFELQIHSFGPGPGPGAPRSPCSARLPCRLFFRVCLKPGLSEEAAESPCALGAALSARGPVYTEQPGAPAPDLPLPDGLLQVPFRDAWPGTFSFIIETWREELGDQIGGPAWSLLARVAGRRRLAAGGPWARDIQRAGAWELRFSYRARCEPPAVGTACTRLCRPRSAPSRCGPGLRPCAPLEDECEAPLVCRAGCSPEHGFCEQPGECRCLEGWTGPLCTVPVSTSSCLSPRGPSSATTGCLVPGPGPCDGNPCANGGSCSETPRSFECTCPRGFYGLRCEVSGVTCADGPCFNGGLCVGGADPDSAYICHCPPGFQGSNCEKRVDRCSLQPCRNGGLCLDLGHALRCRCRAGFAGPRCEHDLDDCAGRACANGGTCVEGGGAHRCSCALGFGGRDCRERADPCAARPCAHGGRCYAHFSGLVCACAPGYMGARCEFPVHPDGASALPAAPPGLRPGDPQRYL
Experiment: Binding kinetic assay using Bio-layer interferometry (BLI)
Conditions: for residence time: read-out: RT (residence time) (converted); for binding mode to DLL3: peptides at 20, 4 and 0.8 μM, fit to 1:1 Langmuir binding model
Description: Binding kinetic assays were performed using Bio-layer interferometry (BLI) technology. The recombinant DLL3 ectodomain (rhDLL3-Fc) was biotinylated using EZ-Link Sulfo-NHS-LC-LC-Biotin Kit according to the manufacturer's protocol (Pierce by Thermo Fisher Scientific). The recombinant protein was incubated with an excess of NHS-LC-LC Biotin ester, in a molar ratio of 1:3 (protein: biotin), at 25° C. for 90 min. The un-reacted biotin ester was removed by subsequent buffer exchange on 0.5 ml Zeba spin desalting columns 7K MWCO (Pierce by Thermo Fisher Scientific).

[1] = Table 4, ± values from three independent experiments

CC(C)C[C@@H]1NC(=O)[C@@H](NC(=O)[C@H](Cc2ccc(O)cc2)NC(=O)[C@H](CC(=O)O)NC(=O)[C@H](Cc2ccccc2)NC(=O)[C@H](CCC(=O)O)NC(=O)[C@@H](NC(=O)[C@@H](NC(=O)[C@H](CCC(=O)O)NC(=O)[C@H](C)N)[C@@H](C)O)C(C)C)CSSC[C@@H](C(=O)N[C@@H](CCC(N)=O)C(=O)N[C@@H](CC(N)=O)C(N)=O)NC(=O)CNC(=O)[C@H](Cc2c[nH]c3ccccc23)NC(=O)[C@H](C)NC(=O)[C@H](CC(=O)O)NC(=O)[C@@H]2CCCN2C(=O)[C@H](C)NC(=O)[C@H](Cc2c[nH]c3ccccc23)NC1=O [PepSP1159] (H-AETVEFDYCLWAPDAWGCQN-NH2; disulfide 9-18; N-terminus assumed)
residence time [1]: 0.1 min | binding mode to DLL3: dose-response saturable binding

CC(C)[C@H](NC(=O)[C@@H](NC(=O)[C@H](CCC(=O)O)NC(=O)[C@H](C)N)[C@@H](C)O)C(=O)N[C@@H](CCC(=O)O)C(=O)N[C@@H](Cc1ccccc1)C(=O)N[C@@H](Cc1c[nH]c2ccccc12)C(=O)N[C@H](C(=O)N[C@H]1CSSC[C@@H](C(=O)N[C@@H](CO)C(=O)N[C@@H](Cc2c[nH]c3ccccc23)C(N)=O)NC(=O)[C@H]([C@@H](C)O)NC(=O)[C@H](Cc2c[nH]c3ccccc23)NC(=O)[C@H](CCC(=O)O)NC(=O)[C@H](CC(=O)O)NC(=O)[C@H](C)NC(=O)[C@H](CC(N)=O)NC(=O)CNC(=O)[C@H](Cc2c[nH]cn2)NC1=O)[C@@H](C)O [PepSP1162] (H-AETVEFWTCHGNADEWTCSW-NH2; disulfide 9-18)
residence time [1]: 0.85 min | binding mode to DLL3: dose-response saturable binding

CC(C)[C@H](NC(=O)[C@@H](NC(=O)[C@H](CCC(=O)O)NC(=O)[C@H](C)N)[C@@H](C)O)C(=O)N[C@@H](CCC(=O)O)C(=O)N[C@@H](Cc1ccccc1)C(=O)N[C@@H](Cc1c[nH]c2ccccc12)C(=O)N[C@@H](CO)C(=O)N[C@H]1CSSC[C@@H](C(=O)NCC(=O)N[C@H](C(N)=O)[C@@H](C)O)NC(=O)[C@H](CO)NC(=O)[C@H](C(C)C)NC(=O)[C@H]([C@@H](C)O)NC(=O)[C@H](Cc2c[nH]c3ccccc23)NC(=O)[C@H](Cc2ccc(O)cc2)NC(=O)[C@H](CO)NC(=O)[C@H](Cc2ccc(O)cc2)NC(=O)[C@H](Cc2c[nH]cn2)NC1=O [PepSP1157] (H-AETVEFWSCHYSYWTVSCGT-NH2; disulfide 9-18; N-terminus assumed)
residence time [1]: 1.48 min | binding mode to DLL3: dose-response saturable binding

CC(C)[C@H](NC(=O)[C@@H](NC(=O)[C@H](CCC(=O)O)NC(=O)[C@H](C)N)[C@@H](C)O)C(=O)N[C@@H](CCC(=O)O)C(=O)N[C@@H](Cc1ccccc1)C(=O)N[C@@H](Cc1ccc(O)cc1)C(=O)NCC(=O)N[C@H]1CSSC[C@@H](C(=O)N[C@@H](CO)C(=O)N[C@@H](Cc2c[nH]c3ccccc23)C(N)=O)NC(=O)[C@H]([C@@H](C)O)NC(=O)[C@H](Cc2ccc(O)cc2)NC(=O)[C@H](CC(=O)O)NC(=O)[C@H](CC(N)=O)NC(=O)[C@H](Cc2ccc(O)cc2)NC(=O)[C@H](CC(N)=O)NC(=O)CNC(=O)[C@H](Cc2c[nH]c3ccccc23)NC1=O [PepSP1177] (H-AETVEFYGCWGNYNDYTCSW-NH2; disulfide 9-18; N-terminus assumed)
residence time [1]: 0.867 min | binding mode to DLL3: dose-response saturable binding

CC(C)[C@H](NC(=O)[C@@H](NC(=O)[C@H](CCC(=O)O)NC(=O)[C@H](C)N)[C@@H](C)O)C(=O)N[C@@H](CCC(=O)O)C(=O)N[C@@H](Cc1ccccc1)C(=O)N[C@@H](Cc1ccc(O)cc1)C(=O)NCC(=O)N[C@H]1CSSC[C@@H](C(=O)N[C@@H](C)C(=O)N[C@@H](Cc2c[nH]c3ccccc23)C(N)=O)NC(=O)[C@H]([C@@H](C)O)NC(=O)[C@H](Cc2ccc(O)cc2)NC(=O)[C@H](CC(=O)O)NC(=O)[C@H](Cc2c[nH]c3ccccc23)NC(=O)CNC(=O)[C@H](Cc2ccc(O)cc2)NC(=O)[C@H](Cc2ccc(O)cc2)NC(=O)[C@H](CCC(N)=O)NC1=O [PepSP1176] (H-AETVEFYGCQYYGWDYTCAW-NH2; disulfide 9-18)
residence time [1]: 1.12 min | binding mode to DLL3: dose-response saturable binding

CC(C)[C@@H]1NC(=O)CNC(=O)[C@H](CCC(=O)O)NC(=O)[C@H]([C@@H](C)O)NC(=O)[C@H](Cc2c[nH]c3ccccc23)NC(=O)[C@H](Cc2ccc(O)cc2)NC(=O)[C@@H](NC(=O)[C@@H](NC(=O)[C@H](Cc2c[nH]c3ccccc23)NC(=O)[C@H](Cc2ccccc2)NC(=O)[C@H](CCC(=O)O)NC(=O)[C@@H](NC(=O)[C@@H](NC(=O)[C@H](CCC(=O)O)NC(=O)[C@H](C)N)[C@@H](C)O)C(C)C)[C@@H](C)O)CSSC[C@@H](C(=O)N[C@@H](CCCNC(=N)N)C(=O)N[C@@H](Cc2c[nH]c3ccccc23)C(N)=O)NC(=O)CNC(=O)[C@H](CO)NC1=O [PepSP1151] (H-AETVEFWTCYWTEGVSGCRW-NH2; disulfide 9-18)
Kd (Table 4, global fitting 1:1 Langmuir, koff vs kon ratio, ± values from three independent experiments): 125 nM | residence time [1]: 2.78 min | binding mode to DLL3: dose-response saturable binding

CC(C)[C@H](NC(=O)[C@@H]1CSSC[C@H](NC(=O)CNC(=O)[C@H](Cc2ccc(O)cc2)NC(=O)[C@H](Cc2ccccc2)NC(=O)[C@H](CCC(=O)O)NC(=O)[C@@H](NC(=O)[C@@H](NC(=O)[C@H](CCC(=O)O)NC(=O)[C@H](C)N)[C@@H](C)O)C(C)C)C(=O)N[C@@H](CCCNC(=N)N)C(=O)NCC(=O)NCC(=O)N[C@@H](CC(=O)O)C(=O)NCC(=O)N[C@@H](CCC(=O)O)C(=O)N[C@@H](Cc2c[nH]c3ccccc23)C(=O)N[C@@H]([C@@H](C)O)C(=O)N1)C(=O)N[C@@H](Cc1c[nH]c2ccccc12)C(N)=O [PepSP1165] (H-AETVEFYGCRGGDGEWTCVW-NH2; disulfide 9-18; N-terminus assumed)
residence time [1]: 1.1 min | binding mode to DLL3: dose-response saturable binding

CC(C)[C@H](NC(=O)[C@@H]1CSSC[C@H](NC(=O)CNC(=O)[C@H](CCCNC(=N)N)NC(=O)[C@H](Cc2ccccc2)NC(=O)[C@H](CCC(=O)O)NC(=O)[C@@H](NC(=O)[C@@H](NC(=O)[C@H](CCC(=O)O)NC(=O)[C@H](C)N)[C@@H](C)O)C(C)C)C(=O)N[C@@H]([C@@H](C)O)C(=O)NCC(=O)N[C@@H](CC(N)=O)C(=O)N[C@@H](C(C)C)C(=O)N[C@@H](Cc2ccc(O)cc2)C(=O)N[C@@H](CC(=O)O)C(=O)N[C@@H](Cc2c[nH]c3ccccc23)C(=O)N[C@@H]([C@@H](C)O)C(=O)N1)C(=O)N[C@@H](Cc1c[nH]c2ccccc12)C(N)=O [PepSP1160] (H-AETVEFRGCTGNVYDWTCVW-NH2; disulfide 9-18)
residence time [1]: 0.783 min | binding mode to DLL3: dose-response saturable binding

CSCC[C@@H]1NC(=O)[C@H](CO)NC(=O)[C@@H](NC(=O)CNC(=O)[C@H](Cc2ccc(O)cc2)NC(=O)[C@H](Cc2ccccc2)NC(=O)[C@H](CCC(=O)O)NC(=O)[C@@H](NC(=O)[C@@H](NC(=O)[C@H](CCC(=O)O)NC(=O)[C@H](C)N)[C@@H](C)O)C(C)C)CSSC[C@@H](C(=O)N[C@@H](C)C(=O)N[C@@H](Cc2c[nH]c3ccccc23)C(N)=O)NC(=O)[C@H]([C@@H](C)O)NC(=O)[C@H](C(C)C)NC(=O)CNC(=O)[C@H](CCCNC(=N)N)NC(=O)[C@H](Cc2c[nH]c3ccccc23)NC(=O)[C@H](CC(=O)O)NC1=O [PepSP1158] (H-AETVEFYGCSMDWRGVTCAW-NH2; disulfide 9-18)
residence time [1]: 0.517 min | binding mode to DLL3: dose-response saturable binding
